The values that follow are results of earlier work, collected in US11559495B1, “Icariin nano-pharmaceutical formulation” (King Abdulaziz University, priority 2022, dated 2023).

Each structure is given as a SMILES string.

The target of data set [1] is cGMP-specific phosphodiesterase type 5 (PDE5) (Homo sapiens, UniProt O76074).
The target in data set [2] is T1, MAO-A (Homo sapiens, UniProt P21397).
T1 sequence (P21397 1-527): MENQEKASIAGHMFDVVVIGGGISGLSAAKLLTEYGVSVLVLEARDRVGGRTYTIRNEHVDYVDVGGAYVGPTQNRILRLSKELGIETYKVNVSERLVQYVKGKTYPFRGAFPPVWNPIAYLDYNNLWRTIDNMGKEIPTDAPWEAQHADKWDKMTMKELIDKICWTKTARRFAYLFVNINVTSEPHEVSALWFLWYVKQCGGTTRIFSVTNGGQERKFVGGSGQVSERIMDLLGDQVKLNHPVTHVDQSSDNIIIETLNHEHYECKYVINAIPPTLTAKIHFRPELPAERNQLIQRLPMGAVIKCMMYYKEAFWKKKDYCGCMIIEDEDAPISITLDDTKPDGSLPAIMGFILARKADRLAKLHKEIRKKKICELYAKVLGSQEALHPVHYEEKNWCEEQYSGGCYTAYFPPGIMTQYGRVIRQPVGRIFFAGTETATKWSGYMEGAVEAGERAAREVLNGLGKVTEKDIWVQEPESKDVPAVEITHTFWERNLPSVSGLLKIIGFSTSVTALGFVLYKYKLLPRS

For data set [3], the target named is T2, MAO-B (Homo sapiens, UniProt P27338).
T2 sequence (P27338 1-520): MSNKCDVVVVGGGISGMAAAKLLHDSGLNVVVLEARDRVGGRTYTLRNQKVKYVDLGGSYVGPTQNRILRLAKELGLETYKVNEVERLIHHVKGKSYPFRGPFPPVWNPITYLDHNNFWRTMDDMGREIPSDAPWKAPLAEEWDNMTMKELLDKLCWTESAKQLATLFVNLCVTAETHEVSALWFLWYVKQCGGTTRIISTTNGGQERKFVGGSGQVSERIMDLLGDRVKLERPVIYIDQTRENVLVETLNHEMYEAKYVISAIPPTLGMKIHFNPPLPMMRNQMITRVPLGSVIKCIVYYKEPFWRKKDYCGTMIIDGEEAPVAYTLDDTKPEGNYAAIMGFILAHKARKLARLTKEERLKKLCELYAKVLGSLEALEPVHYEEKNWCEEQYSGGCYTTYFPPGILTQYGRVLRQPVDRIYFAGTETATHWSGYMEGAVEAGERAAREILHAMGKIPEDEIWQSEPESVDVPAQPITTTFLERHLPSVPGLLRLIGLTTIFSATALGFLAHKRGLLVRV

For `COc1ccc(-c2oc3c(CC=C(C)C)c(O[C@@H]4O[C@H](CO)[C@@H](O)[C@H](O)[C@H]4O)cc(O)c3c(=O)c2O[C@@H]2O[C@@H](C)[C@H](O)[C@@H](O)[C@H]2O)cc1` [ICA, 7-(β-D-Glucopyranosyloxy)-5-hydroxy-4′-methoxy-8-(3-methylbut-2-en-1-yl)-3-(α-L-rhamnopyranosyloxy)flavone], the PDE5 inhibition result in data set [1] was “inhibitor”. In data set [2], the MAO-A activity inhibition result is listed as “inhibited”. Further, the MAO-B activity inhibition result in data set [3] was “inhibited”.
